Laboratory results taken from US20250332173A1, “COMPOUNDS AND METHODS FOR MODULATING NUCLEIC ACID SPLICING” (REMIX THERAPEUTICS INC., priority 2021, published 2025).

Key:
Assay type in all cases: cell-based, human
SMN2 mRNA = test: RT-qPCR splicing assay, SMN2 canonical junction (CJ) mRNA; conditions: Homo sapiens; Table 5 panel; canonical junction qPCR; compound concentration having 50% response in CJ decrease; read-out: SMN2 IC50 (decrease in CJ mRNA levels)
Summary of the method: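 A673 cells (DMEM/10% FBS) or K562 cells (IMDM/10% FBS) were treated 24 h at 37° C. with 11-point 3-fold dilutions (top 10 uM, ≤0.25% DMSO). Canonical-junction mRNA was quantified in lysates by RT-qPCR, normalized to GAPDH, GUSB or PPIA.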

HTT = test: HiBiT protein abundance assay, HTT HiBiT K562 cell line; conditions: HiBiT K562 cell line, 24 hours, top dose 10 μM; read-out: Effect on protein abundance, HTT (IC50 category)
Summary of the method: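 Tagged-protein abundance measured by split-NanoBiT luminescence after lysis, following 24 h compound exposure (37° C; 10 μM top, 3-fold, 10 points; DMSO ≤0.25%) of HiBiT knock-in K562 cells. Percent response vs DMSO and unmodified-cell controls; 4-parameter logistic interpolation at 50% gave IC50.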

Target C = test: HiBiT protein abundance assay, Target C (Promega Nano-Glo HiBiT Lytic Detection System, knock-in K562 cell line); conditions: Homo sapiens, K562, 24 h, HiBiT K562 cell line, 24 hours, top dose 10 μM; read-out: Effect on protein abundance, Target C (IC50 category)
Summary of the method: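 Protein abundance was read by Nano-Glo HiBiT lytic luminescence after 24 h compound exposure (10-point, threefold series from 10 μM final) of HiBiT knock-in K562 cells. Parental K562 served as baseline; the 50%-abundance concentration was interpolated from a four-parameter logistic fit.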

SMILES	IC50 (SMN2 mRNA) [µM]	IC50 (HTT) [µM]	IC50 (Target C) [µM]
Cn1cc2cc(-n3cnc4cc(C5=CC6CCC(C5)N6)ccc4c3=O)ccc2n1 (stereo not drawn) [Compound 160]	> 10	> 10	> 10
Cc1cn2cc(-c3ccc4c(=O)n([C@H]5CCNC5)cc(C)c4c3)cc(C#N)c2n1 [Compound 456, (S)-2-methyl-6-(4-methyl-1-oxo-2-(pyrrolidin-3-yl)-1,2-dihydroisoquinolin-6-yl)imidazo[1,2-a]pyridine-8-carbonitrile]	1 to 10	> 10	> 10
Cc1cn2nc(-c3cc4ccn(C5CCNCC5)c(=O)c4cc3O)cc(C)c2n1 [Compound 448, 6-{2,8-dimethylimidazo[1,2-b]pyridazin-6-yl}-7-hydroxy-2-(piperidin-4-yl)isoquinolin-1-one]	< 0.1	< 0.1	< 0.1
Cc1cn2cc(-c3cc(F)c4c(=O)n(C5CCNCC5)ccc4c3)cc(F)c2n1 [Compound 370]	< 0.1	< 0.1	< 0.1
Cc1cn2nc(-c3ccc4c(=O)n(C5CCNC6(CC6)C5)ccc4c3)cc(C)c2n1 (stereo not drawn) [Compound 384]	< 0.1	< 0.1	< 0.1
Cc1cn2nc(-c3ccc4c(=O)n([C@H]5CCNC[C@H]5F)cnc4c3)cc(C)c2n1 [Compound 372]	< 0.1	0.1 to 1	1 to 10
CCN1CCC(n2ccc3cc(-c4cc(C)c5nc(C)cn5n4)ccc3c2=O)CC1 [Compound 402, 6-{2,8-dimethylimidazo[1,2-b]pyridazin-6-yl}-2-(1-ethylpiperidin-4-yl)isoquinolin-1-one]	< 0.1	< 0.1	0.1 to 1
Cc1cn2nc(-c3cc(F)c4c(=O)n([C@H]5CCNC6(CC6)C5)ccc4c3)cc(C)c2n1 (single isomer, unassigned) [Compound 426]	< 0.1	< 0.1	< 0.1
Cn1cc2cc(-n3cnc4cc(C5CCNCC5)ccc4c3=O)ccc2n1 [Compound 172]	> 10	> 10	> 10
Cc1cn2nc(-c3cc(O)c4c(=O)n(C5CCNC5)cc(C)c4c3)cc(C)c2n1 (stereo not drawn) [Compound 462]	0.1 to 1	1 to 10	1 to 10
Cc1cn2nc(-c3cc(F)c4c(=O)n([C@@H]5CCNC6(CC6)C5)ccc4c3)cc(C)c2n1 (single isomer, unassigned) [Compound 425]	< 0.1	< 0.1	< 0.1
CC(=O)c1cc(-c2cc(F)c3c(=O)n(C4CCNCC4)ccc3c2)cn2cc(C)nc12 [Compound 393, 6-{8-acetyl-2-methylimidazo[1,2-a]pyridin-6-yl}-8-fluoro-2-(piperidin-4-yl)isoquinolin-1-one 2,2,2-trifluoroacetate]	< 0.1	0.1 to 1	0.1 to 1
Cc1cc(-c2ccc3c(=O)n(C4CCNC5(COC5)C4)cnc3c2)cc2cn(C)nc12 (stereo not drawn) [Compound 375]	1 to 10	1 to 10	1 to 10
Cn1cc2cc(-c3cc(F)c4c(=O)n(C5CCNCC5)ccc4c3)cc(C#N)c2n1 [Compound 394, 5-(8-fluoro-1-oxo-2-(piperidin-4-yl)-1,2-dihydroisoquinolin-6-yl)-2-methyl-2H-indazole-7-carbonitrile]	< 0.1	< 0.1	< 0.1
Cc1cn2cc(-c3cc(F)c4c(=O)n(C5CCOCC5)cnc4c3)cc(C#N)c2n1 [Compound 367, 6-[5-fluoro-3-(oxan-4-yl)-4-oxoquinazolin-7-yl]-2-methylimidazo[1,2-a]pyridine-8-carbonitrile]	0.1 to 1	0.1 to 1	0.1 to 1
Cn1cc2cc(-c3cc(F)c4c(=O)n(C5CCNC6(CC6)C5)ccc4c3)c(O)cc2n1 (stereo not drawn) [Compound 414, 2-{4-azaspiro[2.5]octan-7-yl}-8-fluoro-6-(6-hydroxy-2-methylindazol-5-yl)isoquinolin-1-one]	0.1 to 1	1 to 10	> 10
Cc1nc2c(F)cc(-c3cc(F)c4c(=O)n(C5CCNC6(CC6)C5)ccc4c3)cc2n1C (stereo not drawn) [Compound 430, 8-fluoro-6-(4-fluoro-1,2-dimethyl-1H-benzo[d]imidazol-6-yl)-2-(4-azaspiro[2.5]octan-7-yl)isoquinolin-1(2H)-one]	0.1 to 1	> 10	> 10
Cn1cc2c(n1)CCN(c1cc(F)c3c(=O)n(C4CCNCC4)cnc3c1)C2 [Compound 365, 5-fluoro-7-(2-methyl-2,4,6,7-tetrahydro-5H-pyrazolo[4,3-c]pyridin-5-yl)-3-(piperidin-4-yl)quinazolin-4(3H)-one]	0.1 to 1	> 10	> 10
Cc1cn2nc(-c3ccc4c(=O)n([C@H]5CCNC6(CC6)C5)ncc4c3)cc(C)c2n1 [Compound 369, 2-[(7S)-4-azaspiro[2.5]octan-7-yl]-6-{2,8-dimethylimidazo[1,2-b]pyridazin-6-yl}phthalazin-1-one]	< 0.1	0.1 to 1	1 to 10
Cc1cn2nc(-c3cc(C)c4c(=O)n(C5CCNC6(CC6)C5)ccc4c3)cc(C)c2n1 (stereo in doubt) [Compound 397, (S)-6-(2,8-dimethylimidazo[1,2-b]pyridazin-6-yl)-8-methyl-2-(4-azaspiro[2.5]octan-7-yl)isoquinolin-1(2H)-one]	< 0.1	< 0.1	< 0.1
Cc1cn2nc(-c3ccc4c(=O)n([C@@H]5CCNC[C@H]5F)ncc4c3)cc(C)c2n1 [Compound 379]	0.1 to 1	0.1 to 1	0.1 to 1
Cc1nc2c(C)cc(-c3cc(F)c4c(=O)n(C5CCNC6(CC6)C5)ccc4c3)cc2o1 (stereo not drawn) [Compound 418, 2-{4-azaspiro[2.5]octan-7-yl}-6-(2,4-dimethyl-1,3-benzoxazol-6-yl)-8-fluoroisoquinolin-1-one]	< 0.1	< 0.1	< 0.1
Cc1cc(-c2cc(F)c3c(=O)n(C4CCNC5(CC5)C4)ccc3c2)nc2cn(C)nc12 (stereo not drawn) [Compound 431]	< 0.1	< 0.1	< 0.1
Cc1cn2nc(-c3cc(F)c4c(=O)n([C@@H]5CCNC6(CC6)C5)ncc4c3)cc(C)c2n1 [Compound 446]	< 0.1	< 0.1	< 0.1
Cc1cn2cc(-c3cc(O)c4c(=O)n(C5CCNC5)ccc4c3)cc(C#N)c2n1 (stereo not drawn) [Compound 433, 6-(8-hydroxy-1-oxo-2-(pyrrolidin-3-yl)-1,2-dihydroisoquinolin-6-yl)-2-methylimidazo[1,2-a]pyridine-8-carbonitrile]	< 0.1	> 10	> 10
Cc1cn2cc(-c3ccc4c(=O)n([C@@H]5CCCNC5)ccc4c3)cc(F)c2n1 (single isomer, unassigned) [Compound 403]	< 0.1	1 to 10	1 to 10
Cn1cc2nc(-c3ccc4c(=O)n(C5CCNC6(CC6)C5)ncc4c3)ccc2n1 (stereo not drawn) [Compound 511]	< 0.1	0.1 to 1	0.1 to 1
Cn1cc2cc(-c3cc(F)c4c(=O)n(C5CCNC6(CC6)C5)ccc4c3)c(O)c(F)c2n1 (stereo not drawn) [Compound 420, 2-{4-azaspiro[2.5]octan-7-yl}-8-fluoro-6-(7-fluoro-6-hydroxy-2-methylindazol-5-yl)isoquinolin-1-one]	< 0.1	1 to 10	1 to 10
